How the values were obtained:
naked oocytes (NO) [1] = assay: Oocyte test, inhibition of FF-MAS induced meiosis in naked oocytes (NO); format: cell-based, mice
Description: (§1) The ovaries were dissected out and the oocytes were isolated in Hx-medium (see below) under a stereo microscope by manual rupture of the follicles using a pair of 27 gauge needles. Spherical oocytes displaying an intact germinal vesicle (GV) were divided in cumulus enclosed oocytes (CEO) and naked oocytes (NO) and placed in α-minimum essential medium (α-MEM without ribonucleosides, Gibco BRL, Cat. No. 22561) supplemented with 3 mM hypoxanthine (Sigma Cat. No. H-9377), 8 mg/ml Human Serum Albumin (HSA, State Serum Institute, Denmark), 0.23 mM pyruvate (Sigma, Cat. No S-8636), 2 mM glutamine (Flow Cat. No. 16-801), 100 IU/mi penicillin and 100 μg/ml streptomycin (Flow, Cat No. 16-700). This medium was designated Hx-medium.
(§2) The cultures were performed at 37° C. and 100% humidity with 5% CO2 in air. The culture time was 22-24 hours.
(§3) By the end of the culture period, the number of oocytes with germinal vesicle (GV) or germinal vesicle breakdown (GVB) and those with polar body (PB) was counted using a stereo microscope or an inverted microscope with differential interference contrast equipment. The percentage of oocytes with GVB per total number of oocytes and the percentage of oocytes with PB per total number of oocytes was calculated in the test cultures and compared to the control culture.
(§4) Germinal vesicle (GV) oocytes were obtained from immature FSH treated female mice using the same methods as described in Example 1 (see above). The oocytes were rinsed three times in Hx-medium and oocytes of uniform size were divided into groups of CEO and NO. […] CEO and NO were cultured in Hx-medium supplemented with 0.7-7.0 μM FF-MAS in co-culture with the test compounds in different concentrations in 4-well multidishes (Nunclon, Denmark) in which each well contained 0.4 ml of Hx-medium and 35-45 oocytes. One control (i.e., 35-45 oocytes cultured in Hx-medium containing FF-MAS with no addition of test compound) was always run simultaneously with the test cultures, which were supplemented with different concentrations of the compounds to be tested.

[2] = tested on: cumulus enclosed oocytes (CEO); assay: Oocyte test, inhibition of FF-MAS induced meiosis in cumulus enclosed oocytes (CEO); format: cell-based, mice
Description: as §1, §2, §3, §4

CEO and NO = CEO and NO in vitro, previously shown; cited from earlier work
[3] = tested on: cumulus enclosed oocytes (CEO); assay: Oocyte test, activation of meiosis in cumulus enclosed oocytes (CEO) cultured in Hx-medium; format: cell-based, mice
Description: (§5) Oocytes were obtained from immature female mice (C57BI/6J×DBA/2J F1-hybrids, Bomholtgaard, Denmark) weighing 13-16 grams, that were kept under controlled lighting and temperature. The mice received an intra-peritoneal injection of 0.2 ml gonadotropins (Gonal-F, Serono, Solna, Sweden, containing 20 IU FSH, alternatively, Puregon, Organon, Swords, Ireland containing 20 IU FSH) and 48 hours later the animals were killed by cervical dislocation.
as §1
(§6) The oocytes were rinsed three times in Hx-medium and oocytes of uniform size were divided into groups of CEO and NO. CEO and NO were cultured in 4-well multidishes (Nunclon, Denmark) in which each well contained 0.4 ml of Hx-medium and 35-45 oocytes. […]
as §3

naked oocytes (NO) [4] = assay: Oocyte test, activation of meiosis in naked oocytes (NO) cultured in Hx-medium; format: cell-based, mice
Description: as §5, §1, §6, §3

[5] = FF-MAS 0.7 μM + 22R 13 μM (ratio 1:19)
[6] = FF-MAS 0.7 μM + 22R 25 μM (ratio 1:36)
[7] = FF-MAS 1.2 μM + 22R 25 μM (ratio 1:20)
[8] = FF-MAS 7 μM + 22R 12.5 μM (ratio 1:2)
[9] = FF-MAS 0.7 μM alone (control, no 22R)
[10] = FF-MAS 1.2 μM alone (control, no 22R)
[11] = FF-MAS 7 μM alone (control, no 22R)
[12] = CEO, test concentration 7.0 μM, culture 22-24 hours
[13] = NO, test concentration 7.0 μM, culture 22-24 hours

CC(C)CC[C@@H](O)[C@@H](C)[C@H]1CC[C@H]2[C@@H]3CC=C4C[C@@H](O)CC[C@]4(C)[C@H]3CC[C@]12C [Example 22R, cholest-5-en-3β,(22R)-diol]
% GVB (naked oocytes (NO) [1]; [5]): 16.9% | % PB (naked oocytes (NO) [1]; [5]): 0% | % GVB (naked oocytes (NO) [1]; [6]): 2.9% | % PB (naked oocytes (NO) [1]; [6]): 0% | % GVB (naked oocytes (NO) [1]; [7]): 4.6% | % PB (naked oocytes (NO) [1]; [7]): 0% | antagonism of FF-MAS induced resumption of meiosis (naked oocytes (NO) [1]; co-culture with FF-MAS): antagonises the FF-MAS induced resumption of meiosis in a dose-related manner | % GVB [2, 6]: 6.9% | % PB [2, 6]: 3.4% | % GVB [2, 8]: 21% | % PB [2, 8]: 3.5% | antagonism of FF-MAS induced resumption of meiosis ([2]; co-culture with FF-MAS): antagonises the FF-MAS induced resumption of meiosis in a dose-related manner

CC(C)=CCC[C@@H](C)[C@H]1CC=C2C3=C(CC[C@@]21C)[C@@]1(C)CC[C@H](O)C(C)(C)C1CC3 (stereo partly drawn) [FF-MAS, 4,4-Dimethylcholest-8,14,24-trien-3β-ol, reference compound]
% GVB (naked oocytes (NO) [1]; [9]): 33.0% | % PB (naked oocytes (NO) [1]; [9]): 7.8% | % GVB (naked oocytes (NO) [1]; [10]): 19.5% | % PB (naked oocytes (NO) [1]; [10]): 9.5% | % GVB [2, 9]: 21.7% | % PB [2, 9]: 10.8% | % GVB [2, 11]: 39.0% | % PB [2, 11]: 18.9% | induction of meiosis (CEO and NO): induce meiosis in CEO and NO in vitro

CC(C)CCC[C@@H](C)[C@H]1CC[C@H]2[C@@H]3CC=C4[C@@H](O)[C@@H](O)CC[C@]4(C)[C@H]3CC[C@]12C [cholest-5-en-3β,4β-diol]
% GVB [3, 12]: 44.4% | % PB [3, 12]: 25.9% | induction of meiosis ([3]; cumulus enclosed oocyte cultured in vitro): induces meiosis | % GVB (naked oocytes (NO) [4]; [13]): 50.2% | % PB (naked oocytes (NO) [4]; [13]): 17.2% | induction of meiosis (naked oocytes (NO) [4]; naked oocyte cultured in vitro): induces meiosis

Source: patent US20030032824A1, “Meiosis regulating compounds” (priority 1996, published 2003)
